Reference: patent publication US20230374038A1, “MODULATORS OF CYSTIC FIBROSIS TRANSMEMBRANE CONDUCTANCE REGULATOR” (VERTEX PHARMACEUTICALS INCORPORATED, priority 2020, published 2023)
Read-outs that look alike come from different tables or passages of the source.

What was measured:
CFTR [1] = biological target: T1, CFTR (Homo sapiens, UniProt P13569); experiment: Membrane Potential Dye, Enteroid Assay A; type: cell-based; settings: for EC50: read-out: Ent. A EC50
Method: Base medium (ADF+++) consisted of Advanced DMEM/Ham's F12, 2 mM Glutamax, 10 mM HEPES, 1 µg/mL penicillin/streptomycin.
Intestinal enteroid maintenance medium (IEMM) consisted of ADF+++, 1× B27 supplement, 1× N2 supplement, 1.25 mM N-acetyl cysteine, 10 mM Nicotinamide, 50 ng/mL hEGF, 10 nM Gastrin, 1 pg/mL hR-spondin-1, 100 ng/mL hNoggin, TGF-b type 1 inhibitor A-83-01, 100 μg/mL Primocin, […] P38 MAPK inhibitor SB202190.
Bath 1 Buffer consisted of 1 mM MgCl2, 160 mM NaCl, 4.5 mM KCl, 10 mM HEPES, 10 mM Glucose, 2 mM CaCl2).
Chloride Free Buffer consisted of 1 mM Magnesium Gluconate, 2 mM Calcium Gluconate, 4.5 mM Potassium Gluconate, 160 mM Sodium Gluconate, 10 mM HEPES, 10 mM Glucose.
Bath1 Dye Solution consisted of Bath 1 Buffer, 0.04% Pluronic F127, […] Methyl Oxonol, 30 μM CaCCinh-A01, 30 μM Chicago Sky Blue.
Chloride Free Dye Solution consisted of Chloride Free Buffer, 0.04% Pluronic F127, 20 μM Methyl Oxonol, 30 μM CaCCinh-A01, 30 μM Chicago Sky Blue.
Chloride Free Dye Stimulation Solution consisted of Chloride Free Dye Solution, 10 μM forskolin, 100 μM IBMX, and 300 nM Compound III.
Human intestinal epithelial enteroid cells were obtained from the Hubrecht Institute for Developmental Biology and Stem Cell Research, Utrecht, The Netherlands and expanded in T-Flasks as previously described (Dekkers J F, Wiegerinck C L, de Jonge H R, Bronsveld I, Janssens H M, de Winter-de Groot K M, Brandsma A M, de Jong N W M, Bijvelds M J C, Scholte B J, Nieuwenhuis E E S, van den Brink S, Clevers H, van der Ent C K, Middendorp S and M Beekman J M. A functional CFTR assay using primary cystic fibrosis intestinal organoids. Nat Med. 2013 July; 19(7):939-45.).
Cells were recovered in cell recovery solution, collected by centrifugation at 650 rpm for 5 min at 4° C., resuspended in TryPLE and incubated for 5 min at 37° C. Cells were then collected by centrifugation at 650 rpm for 5 min at 4° C. and resuspended in IEMM containing 10 μM ROCK inhibitor (RI). The cell suspension was passed through a 40 μm cell strainer and resuspended at 1×10^6 cells/mL in IEMM containing 10 μM RI. Cells were seeded at 5000 cells/well into multi-well plates and incubated for overnight at 37° C., 95% humidity and 5% CO2 prior to assay.
Enteroid cells were incubated with test compound in IEMM for 18-24 hours at 37° C., 95% humidity and 5% CO2. […] Briefly, cells were washed 5 times in Bath 1 Buffer. Bath 1 Dye Solution was added, and the cells were incubated for 25 min at room temperature. Following dye incubation, cells were washed 3 times in Chloride Free Dye Solution. Chloride transport was initiated by addition of Chloride Free Dye Stimulation Solution and the fluorescence signal was read for 15 min. […] Chloride transport was then expressed as a percentage of the chloride transport following treatment with 3 μM (S)—N-((6-aminopyridin-2-yl)sulfonyl)-6-(3-fluoro-5-isobutoxyphenyl)-2-(2,2,4-trimethylpyrrolidin-1-yl)nicotinamide, 3 μM (R)-1-(2,2-difluorobenzo[d][1,3]dioxol-5-yl)-N-(1-(2,3-dihydroxypropyl)-6-fluoro-2-(1-hydroxy-2-methylpropan-2-yl)-1H-indol-5-yl)cyclopropanecarboxamide and 300 nM acute N-[2,4-bis(1,1-dimethylethyl)-5-hydroxyphenyl]-1,4-dihydro-4-oxoquinoline-3-carboxamide triple combination control (% Activity).

CFTR [2] = biological target: T2, CFTR (Homo sapiens, UniProt P13569, DEL508-508); experiment: HBE Assay: Ussing chamber assay of CFTR-mediated short-circuit currents in F508del/MF-HBE cells with 1 μM Ivacaftor; type: cell-based; settings: with 1 μM Ivacaftor, 18-24 hours, 20% human serum
T2 construct: endogenous in cells; host or cells: primary human bronchial epithelial cells, F508del/MF genotype
T2 sequence (P13569 with tags, fused parts or gaps DEL508-508): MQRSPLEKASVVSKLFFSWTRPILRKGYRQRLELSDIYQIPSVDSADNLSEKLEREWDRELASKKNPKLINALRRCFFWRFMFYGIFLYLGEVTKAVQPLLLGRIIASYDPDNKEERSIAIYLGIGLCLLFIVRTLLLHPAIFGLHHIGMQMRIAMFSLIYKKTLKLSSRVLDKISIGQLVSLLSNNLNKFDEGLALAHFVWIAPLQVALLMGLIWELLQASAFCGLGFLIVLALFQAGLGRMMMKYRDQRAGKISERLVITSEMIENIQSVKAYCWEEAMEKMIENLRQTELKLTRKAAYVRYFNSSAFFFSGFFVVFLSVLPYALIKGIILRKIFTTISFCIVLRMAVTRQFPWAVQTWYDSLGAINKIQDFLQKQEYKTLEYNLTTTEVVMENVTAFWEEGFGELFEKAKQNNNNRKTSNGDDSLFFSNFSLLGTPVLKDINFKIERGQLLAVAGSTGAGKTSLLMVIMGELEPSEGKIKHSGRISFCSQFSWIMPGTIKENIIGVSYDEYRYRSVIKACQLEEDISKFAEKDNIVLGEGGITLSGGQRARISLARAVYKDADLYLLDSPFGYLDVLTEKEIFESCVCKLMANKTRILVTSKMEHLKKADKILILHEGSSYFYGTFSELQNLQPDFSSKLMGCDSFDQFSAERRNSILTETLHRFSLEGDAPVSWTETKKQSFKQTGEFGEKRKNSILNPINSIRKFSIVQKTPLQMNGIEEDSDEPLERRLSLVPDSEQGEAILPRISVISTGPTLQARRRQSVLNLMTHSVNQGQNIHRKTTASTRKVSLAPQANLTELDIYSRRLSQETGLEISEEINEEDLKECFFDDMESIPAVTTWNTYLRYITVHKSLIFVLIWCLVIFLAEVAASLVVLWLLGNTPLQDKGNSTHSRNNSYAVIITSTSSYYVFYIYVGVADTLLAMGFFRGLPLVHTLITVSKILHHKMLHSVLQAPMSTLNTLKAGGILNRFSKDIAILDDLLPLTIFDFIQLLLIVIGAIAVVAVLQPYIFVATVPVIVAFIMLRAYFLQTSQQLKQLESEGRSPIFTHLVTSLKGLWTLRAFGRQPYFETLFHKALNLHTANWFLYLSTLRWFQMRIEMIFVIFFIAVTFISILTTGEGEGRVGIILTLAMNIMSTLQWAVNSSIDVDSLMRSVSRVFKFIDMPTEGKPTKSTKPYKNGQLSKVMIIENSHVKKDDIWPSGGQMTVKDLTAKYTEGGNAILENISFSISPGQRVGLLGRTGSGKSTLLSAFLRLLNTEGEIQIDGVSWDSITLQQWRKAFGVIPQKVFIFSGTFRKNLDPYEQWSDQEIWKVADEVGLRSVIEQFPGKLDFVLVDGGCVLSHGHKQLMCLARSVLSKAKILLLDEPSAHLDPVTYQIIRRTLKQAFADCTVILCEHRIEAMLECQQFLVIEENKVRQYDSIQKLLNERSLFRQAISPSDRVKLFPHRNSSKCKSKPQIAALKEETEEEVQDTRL
How it was run: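 F508del/MF-HBE cells at air-liquid interface >14 days were incubated 18-24 h at 37° C with corrector (concentration range or fixed 10 μM) plus 1 μM Ivacaftor in 20% human serum, compounds kept throughout. Ussing chamber, Vhold=0 mV, 37° C, apical amiloride 30 μM; ISC (μA/cm^2) from peak 20 μM forskolin response to steady state after CFTR inhibitor cocktail.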

F508del = biological target: T3, F508del (Homo sapiens, UniProt P13569, DEL508-508); experiment: 3T3 Assay: membrane potential optical assay for F508del correctors in NIH 3T3 cells; type: cell-based; settings: for Emax: NIH3T3, F508del corrector assay, read-out: 3T3 Max Activity; for EC50: F508del corrector assay
T3 construct: expressed in transfected cells; host or cells: NIH3T3 mouse fibroblasts
T3 sequence (P13569 with tags, fused parts or gaps DEL508-508): as above
Text: The assay utilizes fluorescent voltage sensing dyes to measure changes in membrane potential using a fluorescent plate reader (e.g., FLIPR III, Molecular Devices, Inc.) as a readout for increase in functional F508del in NIH 3T3 cells. The driving force for the response is the creation of a chloride ion gradient in conjunction with channel activation by a single liquid addition step after the cells have previously been treated with compounds and subsequently loaded with a voltage sensing dye.
To identify correctors of F508del, a single-addition HTS assay format was developed. This HTS assay utilizes fluorescent voltage sensing dyes to measure changes in membrane potential on the FLIPR III as a measurement for increase in gating (conductance) of F508del in F508del NIH 3T3 cells. The F508del NIH 3T3 cell cultures were incubated with the corrector compounds at a range of concentrations for 18-24 hours at 37° C., and subsequently loaded with a redistribution dye. The driving force for the response is a Cl^− ion gradient in conjunction with channel activation with forskolin in a single liquid addition step using a fluorescent plate reader such as FLIPR III.
Bath Solution #1: (in mM) NaCl 160, KCl 4.5, CaCl2) 2, MgCl2 1, HEPES 10, pH 7.4 with NaOH.
Chloride-free bath solution: Chloride salts in Bath Solution #1 (above) are substituted with gluconate salts.
NIH3T3 mouse fibroblasts stably expressing F508del are used for optical measurements of membrane potential. The cells are maintained at 37° C. in 5% CO2 and 90% humidity in Dulbecco's modified Eagle's medium supplemented with 2 mM glutamine, 10% fetal bovine serum, 1×NEAA, b-ME, 1× pen/strep, and 25 mM HEPES in 175 cm^2 culture flasks. For all optical assays, the cells were seeded at ˜20,000/well in 384-well matrigel-coated plates. For the correction assays, the cells are cultured at 37° C. with and without compounds for 16-24 hours.

CFTR [3] = biological target: T1, CFTR; experiment: Membrane Potential Dye, Enteroid Assay B; type: cell-based
How it was run: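 Human intestinal enteroids seeded at 5000 cells/well, treated with compound 18-24 h at 37 °C, then loaded 25 min with methyl oxonol membrane-potential dye plus CaCC blockers. Chloride transport started in chloride-free buffer with 10 μM forskolin, 100 μM IBMX and 300 nM Compound III, read 15 min; expressed as % of triple-combination control.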

T1 sequence (P13569 with tags, fused parts or gaps DEL508-508): as above

| Ent. A Max Activity (CFTR [1]) | EC50 (CFTR [1]) [nM] | Emax (F508del) [%] | EC50 (F508del) [nM] | Compound | also measured |
| --- | --- | --- | --- | --- | --- |
| ++ (++ is 30-60%) | 3000 to 30000 |  |  | Cc1ccccc1-c1nc2nc(c1C(F)(F)F)OCC1CN(C)CCN1C(=O)c1cccc(c1)S(=O)(=O)N2 (centres unmarked) [Compound 31, 6-Methyl-13-(2-methylphenyl)-12-(trifluoromethyl)-10-oxa-17λ^6-thia-3,6,14,16,23-pentaazatetracyclo[16.3.1.111,15.03,8]tricosa-1(22),11,13,15(23),18,20-hexaene-2,17,17-trione] | ring closure, yield after HPLC (from Cc1ccccc1-c1nc(NS(=O)(=O)c2cccc(C(=O)N3CCN(C)CC3CO)c2)nc(Cl)c1C(F)(F)F, snar bond, 13-membered ring, NaH, NMP, 70.0 °C, 4.0 h, 2 steps): 6% |
|  |  |  |  | Cc1cccc(C)c1-c1nc2nc(c1C)OC[C@@H](CC(C)(C)C)N(Cc1ccc(N3CCOCC3)cn1)C(=O)c1cccc(c1)S(=O)(=O)N2 [Compound 49, (11R)-6-(2,6-Dimethylphenyl)-11-(2,2-dimethylpropyl)-7-methyl-12-{[5-(morpholin-4-yl)pyridin-2-yl]methyl}-9-oxa-2λ^6-thia-3,5,12,19-tetraazatricyclo[12.3.1.14,8]nonadeca-1(17),4(19),5,7,14(18),15-hexaene-2,2,13-trione] | ring closure, yield after HPLC (from Cc1cccc(C)c1-c1nc(NS(=O)(=O)c2cccc(C(=O)O)c2)nc(OC[C@@H](CC(C)(C)C)NCc2ccc(N3CCOCC3)cn2)c1C, amide bond, 13-membered ring, CDMT/NMM, DMF, 21.0 mM, 15.0 h, 2 steps): 5%; EC50 (CFTR [2]): < 1000 nM; HBE Max Activity (CFTR [2]): +++ (+++ is >600%) |
|  |  | < 30 |  | CCc1c2nc(nc1-c1ccc([S+](C)[O-])cc1)NS(=O)(=O)c1cccc(c1)NC(=O)c1cccc(c1)O2 (centres unmarked) [Compound 18] |  |
| ++ (++ is 30-60%) | 1000 to 3000 |  |  | Cc1ccccc1-c1nc2nc(c1C(F)(F)F)OCC1CN(CCN1CCC1(C(F)(F)F)CC1)C(=O)c1cccc(c1)S(=O)(=O)N2 (centres unmarked) [Compound 32, 12-(2-Methylphenyl)-13-(trifluoromethyl)-18-{2-[1-(trifluoromethyl)cyclopropyl]ethyl}-15-oxa-8λ^6-thia-1,9,11,18,22-pentaazatetracyclo[15.3.1.13,7.110,14]tricosa-3(23),4,6,10(22),11,13-hexaene-2,8,8-trione] | ring closure, yield after HPLC (from Cc1ccccc1-c1nc(NS(=O)(=O)c2cccc(C(=O)O)c2)nc(OCC2CNCCN2CCC2(C(F)(F)F)CC2)c1C(F)(F)F, amide bond, 14-membered ring, HATU/DIEA, DMF, 25.0 °C, 1.0 h, 3 steps): 16% |
|  |  | > 60 | < 1000 | CCc1c2nc(nc1-c1ccccc1COCCOC)NS(=O)(=O)c1cccc(c1)NC(=O)c1cccc(c1)O2 [Compound 11] |  |
|  |  |  |  | Cc1c2nc(nc1-c1ccccc1C(C)C)NS(=O)(=O)c1cccc(c1)C(=O)N(Cc1ncc(N3CCOCC3)cn1)[C@H](CC(C)(C)C)CO2 [Compound 173, (11R)-11-(2,2-Dimethylpropyl)-7-methyl-12-{[5-(morpholin-4-yl)pyrimidin-2-yl]methyl}-6-[2-(propan-2-yl)phenyl]-9-oxa-2λ^6-thia-3,5,12,19-tetraazatricyclo[12.3.1.14,8]nonadeca-1(17),4(19),5,7,14(18),15-hexaene-2,2,13-trione] | ring closure, yield after HPLC (from Cc1c(OC[C@@H](CC(C)(C)C)NCc2ncc(N3CCOCC3)cn2)nc(NS(=O)(=O)c2cccc(C(=O)O)c2)nc1-c1ccccc1C(C)C, amide bond, 13-membered ring, CDMT/NMM, DMF, 57.0 mM, 19.0 h, 2 steps): 18%; EC50 (CFTR [2]): < 1000 nM; HBE Max Activity (CFTR [2]): +++ (+++ is >600%) |
|  |  | > 60 | < 1000 | CCc1c2nc(nc1-c1cccc(C)c1C)NS(=O)(=O)c1cccc(c1)NC(=O)c1cccc(c1)O2 [Compound 17] |  |
|  |  | > 60 | < 1000 | CCc1c2nc(nc1-c1c(C)cc(C)cc1C)NS(=O)(=O)c1cccc(c1)NC(=O)c1cccc(c1)O2 [Compound 19] |  |
| +++ (+++ is >60%) | < 1000 |  |  | Cc1cccc(C)c1-c1nc2nc(c1OC(C)C)OC[C@@H](CC(C)C)NC(=O)c1cccc(c1)S(=O)(=O)N2 [Compound 165, (11R)-6-(2,6-Dimethylphenyl)-11-isobutyl-7-isopropoxy-2,2-dioxo-9-oxa-2λ^6-thia-3,5,12,19-tetrazatricyclo[12.3.1.14,8]nonadeca-1(18),4(19),5,7,14,16-hexaen-13-one] | ring closure, yield after HPLC (from Cc1cccc(C)c1-c1nc(NS(=O)(=O)c2cccc(C(=O)O)c2)nc(OC[C@H](N)CC(C)C)c1OC(C)C, amide bond, 13-membered ring, HATU/Et3N, DMF, 12.0 mM, 0.5 h, 2 steps): 8%; Ent. B Max Activity (CFTR [3]): +++ (+++ is >60%); EC50 (CFTR [3]; read-out: Ent. B EC50): < 1000 nM |
| +++ (+++ is >60%) | 1000 to 3000 |  |  | Cc1ccccc1-c1nc2nc(c1C(C)(C)C)OCC1CN(CCN1CCC1(C(F)(F)F)CC1)C(=O)c1cccc(c1)S(=O)(=O)N2 (centres unmarked) [Compound 33, 13-tert-Butyl-12-(2-methylphenyl)-18-{2-[1-(trifluoromethyl)cyclopropyl]ethyl}-15-oxa-8λ^6-thia-1,9,11,18,22-pentaazatetracyclo[15.3.1.13,7.110,14]tricosa-3(23),4,6,10(22),11,13-hexaene-2,8,8-trione] | ring closure, yield after HPLC (from Cc1ccccc1-c1nc(NS(=O)(=O)c2cccc(C(=O)O)c2)nc(OCC2CNCCN2CCC2(C(F)(F)F)CC2)c1C(C)(C)C, amide bond, 14-membered ring, HATU/DIEA, DMF, 25.0 °C, 1.0 h, 3 steps): 8% |
|  |  | > 60 | < 1000 | Cc1ccc2cc1Oc1nc(nc(-c3c(C)cccc3C)c1Cl)NS(=O)(=O)c1cccc(c1)NC2=O [Compound 8] |  |
